Results taken from patent US8017769B2, “Colorless water-soluble organic luminophores and intermediates thereof” (priority 2005, dated 2011).
Blank lines part the entries; values can stand above or below the compound they belong to.

Legend:
[1] = result in words
[2] = colourless aqueous solution

SMILES: O=S(=O)([O-])c1ccc(Nc2nc(Nc3ccc(S(=O)(=O)[O-])cc3-c3nc4ccccc4s3)nc(N3CCOCC3)n2)c(-c2nc3ccccc3s2)c1.[Na+].[Na+] [Compound VI, Disodium salt of 4-{4-[2-(benzo[d]thiazol-2-yl)-4-sulfophenylamino]-6-morpholino-1,3,5-triazin-2-ylamino}-3-(benzo[d]thiazol-2-yl)benzenesulfonic acid]
solubility in water [1]: highly soluble in water | fluorescence wavelength maximum [2]: 582 nm

SMILES: O=C([O-])CN(CC(=O)[O-])c1nc(Nc2ccc(S(=O)(=O)[O-])cc2-c2nc3ccccc3s2)nc(N(CC(=O)[O-])CC(=O)[O-])n1.[K+].[K+].[K+].[K+].[K+] [Compound IV, Pentapotassium salt of 4-{4,6-bis-[di(carboxymethyl)amino]-1,3,5-triazin-2-ylamino}-3-(benzo[d]thiazol-2-yl)benzenesulfonic acid]
solubility in water [1]: highly soluble in water | fluorescence wavelength maximum [2]: 570 nm

SMILES: N.N.N.O=C(O)CN(CC(=O)O)c1nc(Cl)nc(Nc2ccc(S(=O)(=O)O)cc2-c2nc3ccccc3o2)n1 [Compound XIV, Triammonium salt of 4-{4-chloro-6-[di(carboxymethyl)amino]-1,3,5-triazin-2-ylamino}-3-(benzo[d]oxazol-2-yl)benzenesulfonic acid]
solubility in water [1]: highly soluble in water | fluorescence wavelength maximum [2]: 517 mm

SMILES: O=S(=O)([O-])c1ccc(Nc2nc(Cl)nc(Nc3ccc(S(=O)(=O)[O-])cc3-c3nc4ccccc4s3)n2)c(-c2nc3ccccc3s2)c1.[Na+].[Na+] [Compound V, Disodium salt of 4-{4-[2-(benzo[d]thiazol-2-yl)-4-sulfophenylamino]-6-chloro-1,3,5-triazin-2-ylamino}-3-(benzo[d]thiazol-2-yl)benzenesulfonic acid]
solubility in water [1]: poorly soluble in water

SMILES: O=C(Nc1ccc(S(=O)(=O)[O-])cc1-c1nc2ccccc2s1)c1ccccc1S(=O)(=O)[O-].[Na+].[Na+] [Compound VII, Disodium salt of 4-(2-sulfobenzoylamino)-3-(benzoldlthiazol-2-yl)benzenesulfonic acid]
solubility in water [1]: highly soluble in water | fluorescence wavelength maximum [2]: 547 nm

Results, then the compound that gave them:

solubility in water [1]: highly soluble in water | fluorescence wavelength maximum [2]: 550 nm
SMILES: O=S(=O)([O-])c1cccc(Nc2nc(Cl)nc(Nc3ccc(S(=O)(=O)[O-])cc3-c3nc4ccccc4s3)n2)c1.[Na+].[Na+] [Compound III, Disodium salt of 4-[4-Chloro-6-(3-sulfophenylamino)-1,3,5-triazin-2-ylamino]-3-(benzo[d]thiazol-2-yl)benzenesulfonic acid]

solubility in water [1]: highly soluble in water | fluorescence wavelength maximum [2]: 517 nm
SMILES: O=S(=O)([O-])c1cccc(Nc2nc(Cl)nc(Nc3ccc(S(=O)(=O)[O-])cc3-c3nc4ccccc4o3)n2)c1.[Na+].[Na+] [Compound XIII, Disodium salt of 4-[4-chloro-6-(3-sulfophenylamino)-1,3,5-triazin-2-ylamino]-3-(benzo[d]oxazol-2-yl)benzenesulfonic acid]

solubility in water [1]: highly soluble in water | fluorescence wavelength maximum [2]: 565 nm
SMILES: O=C([O-])CNc1nc(NCC(=O)[O-])nc(Nc2ccc(S(=O)(=O)[O-])cc2-c2nc3ccccc3s2)n1.[Na+].[Na+].[Na+] [Compound X, Trisodium salt of 4-[4,6-bis(carboxymethylamino)-1,3,5-triazin-2-ylamino]-3-(benzo[d]thiazol-2-yl)benzenesulfonic acid]

solubility in water [1]: highly soluble in water | fluorescence wavelength maximum [2]: 548 nm
SMILES: O=C([O-])CNc1nc(Cl)nc(Nc2ccc(S(=O)(=O)[O-])cc2-c2nc3ccccc3s2)n1.[Na+].[Na+] [Compound VIII, Disodium salt of 4-(4-carboxymethylamino-6-chloro-1,3,5-triazin-2-ylamino)-3-(benzo[d]thiazol-2-yl)benzenesulfonic acid]

solubility in water [1]: not soluble in water
SMILES: O=S(=O)([O-])c1ccc(Nc2nc(Cl)nc(Cl)n2)c(-c2nc3ccccc3s2)c1.[Na+] [Compound II, Sodium salt of 4-(4,6-dichloro-1,3,5-triazin-2-ylamino)-3-(benzo[d]thiazol-2-yl)benzenesulfonic acid]

solubility in water [1]: highly soluble in water | fluorescence wavelength maximum [2]: 565 nm
SMILES: O=S(=O)([O-])c1cccc(Nc2nc(Nc3ccc(S(=O)(=O)[O-])cc3-c3nc4ccccc4s3)nc(N3CCOCC3)n2)c1.[Na+].[Na+] [Compound IX, Disodium salt of 4-[4-(3-sulfophenylamino)-6-morpholino-1,3,5-triazin-2-ylamino]-3-(benzo[d]thiazol-2-yl)benzenesulfonic acid]
